Experimental data from BigSolDB 2.1.

CC1(C)COP(=O)(C(Nc2ccccc2)c2ccccc2)OC1 (stereo not drawn)
Conditions	solubility (mole fraction)
in 1,2-dichloroethane, 278.65 K	0.0102
in 1,2-dichloroethane, 283.65 K	0.0119
in 1,2-dichloroethane, 288.65 K	0.0143
in 1,2-dichloroethane, 293.25 K	0.0169
in 1,2-dichloroethane, 298.15 K	0.0191
in 1,2-dichloroethane, 303.15 K	0.0229
in 1,2-dichloroethane, 308.25 K	0.0265
in 1,2-dichloroethane, 313.15 K	0.031
in 1,2-dichloroethane, 318.15 K	0.035
in 1,2-dichloroethane, 323.15 K	0.0395
in 1,2-dichloroethane, 328.15 K	0.0437
in 1,2-dichloroethane, 333.15 K	0.0526
in 1,4-dioxane, 285.65 K	0.00609
in 1,4-dioxane, 288.65 K	0.00661
in 1,4-dioxane, 293.65 K	0.00739
in 1,4-dioxane, 298.15 K	0.00887
in 1,4-dioxane, 303.15 K	0.0103
in 1,4-dioxane, 308.15 K	0.0121
in 1,4-dioxane, 313.15 K	0.0139
in 1,4-dioxane, 318.15 K	0.0162
in 1,4-dioxane, 323.15 K	0.019
in 1,4-dioxane, 328.15 K	0.023
in THF, 278.65 K	0.00583
in THF, 283.65 K	0.00648
in THF, 288.15 K	0.00764
in THF, 293.25 K	0.00858
in THF, 298.25 K	0.0102
in THF, 303.15 K	0.0117
in THF, 307.95 K	0.0133
in THF, 313.15 K	0.0152
in THF, 318.05 K	0.0169
in THF, 322.65 K	0.0187
in THF, 327.15 K	0.0215
in THF, 332.65 K	0.0237
in acetone, 278.15 K	0.00244
in acetone, 283.75 K	0.00314
in acetone, 288.15 K	0.00432
in acetone, 293.75 K	0.00578
in acetone, 298.65 K	0.00728
in acetone, 302.75 K	0.00898
in acetone, 307.85 K	0.0112
in acetone, 311.75 K	0.0138
in acetone, 317.15 K	0.0171
in acetone, 321.25 K	0.0186
in acetonitrile, 278 K	0.00557
in acetonitrile, 285.65 K	0.0068
in acetonitrile, 288.75 K	0.00746
in acetonitrile, 293.75 K	0.00887
in acetonitrile, 298.25 K	0.0101
in acetonitrile, 303.25 K	0.0119
in acetonitrile, 308.15 K	0.0142
in acetonitrile, 312.75 K	0.0161
in acetonitrile, 317.65 K	0.0192
in acetonitrile, 322.45 K	0.0218
in acetonitrile, 327.75 K	0.0258
in acetonitrile, 335.35 K	0.0328
in benzene, 278.65 K	0.0011
in benzene, 283.65 K	0.00131
in benzene, 288.15 K	0.00162
in benzene, 293.25 K	0.00201
in benzene, 298.25 K	0.00245
in benzene, 303.15 K	0.00301
in benzene, 307.95 K	0.00381
in benzene, 313.15 K	0.00464
in benzene, 318.05 K	0.00519
in benzene, 322.65 K	0.00634
in benzene, 327.15 K	0.00711
in benzene, 332.65 K	0.0093
in benzene, 337.55 K	0.0107
in benzene, 343.15 K	0.0123
in benzene, 347.5 K	0.0149
in chloroform, 278.75 K	0.0352
in chloroform, 283.65 K	0.0382
in chloroform, 288.85 K	0.0403
in chloroform, 293.95 K	0.042
in chloroform, 298.35 K	0.0444
in chloroform, 303.25 K	0.0471
in chloroform, 307.75 K	0.0492
in chloroform, 313.15 K	0.0527
in chloroform, 317.95 K	0.0548
in chloroform, 322.75 K	0.0591
in chloroform, 327.95 K	0.0646
in dichloromethane, 278.65 K	0.00771
in dichloromethane, 283.25 K	0.00994
in dichloromethane, 288.65 K	0.012
in dichloromethane, 293.25 K	0.0152
in dichloromethane, 298.85 K	0.0189
in dichloromethane, 302.95 K	0.0232
in dichloromethane, 308.35 K	0.0274
in dichloromethane, 310.95 K	0.0317
in ethyl acetate, 293.65 K	0.00232
in ethyl acetate, 298.25 K	0.00278
in ethyl acetate, 303.15 K	0.00385
in ethyl acetate, 308.05 K	0.0046
in ethyl acetate, 312.95 K	0.00561
in ethyl acetate, 317.95 K	0.00671
in ethyl acetate, 322.95 K	0.00781
in ethyl acetate, 327.95 K	0.00913
in ethyl acetate, 332.75 K	0.0097
in ethyl acetate, 337.65 K	0.0111
in isopropanol, 278.15 K	0.0004
in isopropanol, 283.15 K	0.0005
in isopropanol, 288.35 K	0.00066
in isopropanol, 293.65 K	0.0008
in isopropanol, 298.15 K	0.00106
in isopropanol, 302.17 K	0.00128
in isopropanol, 307.95 K	0.00177
in isopropanol, 312.55 K	0.00203
in isopropanol, 317.55 K	0.00254
in isopropanol, 321.55 K	0.00318
in isopropanol, 326.65 K	0.00389
in isopropanol, 332.15 K	0.00485
in isopropanol, 337.55 K	0.00626
in isopropanol, 343.15 K	0.00791
in isopropanol, 347.5 K	0.00958
in methanol, 278.15 K	0.00151
in methanol, 283.65 K	0.002
in methanol, 289.15 K	0.00246
in methanol, 293.65 K	0.00312
in methanol, 298.15 K	0.00367
in methanol, 303.15 K	0.0045
in methanol, 307.95 K	0.00541
in methanol, 313.15 K	0.00662
in methanol, 318.15 K	0.00796
in methanol, 323.15 K	0.00984
in tetrachloromethane, 278.15 K	0.00015
in tetrachloromethane, 283.15 K	0.00019
in tetrachloromethane, 288.35 K	0.00026
in tetrachloromethane, 293.65 K	0.00034
in tetrachloromethane, 298.15 K	0.00044
in tetrachloromethane, 302.17 K	0.00051
in tetrachloromethane, 307.95 K	0.00066
in tetrachloromethane, 312.55 K	0.00085
in tetrachloromethane, 317.55 K	0.00103
in tetrachloromethane, 321.55 K	0.00121
in tetrachloromethane, 326.65 K	0.00143
in tetrachloromethane, 332.15 K	0.00203
in tetrachloromethane, 337.15 K	0.00246
